In PMC8286840, “Identifying SARS-CoV-2 antiviral compounds by screening for small molecule inhibitors of Nsp3 papain-like protease” (Biochemical Journal, 2021):
Where a name gives a salt, the structure may show the parent alone. Read-outs that look alike come from different tables or passages of the source.

Columns and labels:
[1] = biological target: T1, SARS-CoV-2 PLpro (nsp3 1564–1878) (Severe acute respiratory syndrome coronavirus 2, UniProt P0DTD1); experiment: biochemical; parameters: FRET-quenched peptide (Pro3) cleavage by PLpro, 10 min pre-incubation, slope over 20 min, normalised to no-compound control; details: low concentration screen, read-out: % of control remaining
[2] = biological target: T1, SARS-CoV-2 PLpro (nsp3 1564–1878); experiment: biochemical; parameters: FRET-quenched peptide (Pro3) cleavage by PLpro, 10 min pre-incubation, slope over 20 min, normalised to no-compound control; details: high concentration screen, read-out: % of control remaining

**Q.** For `CC(C)(CO)Cc1cc(C(C)(C)C)c(O)c(C(C)(C)C)c1` [CGP-7930], which remaining activity at 1.25 µM ([1]; Well no.=43) is on record?
**A.** 101%

**Q.** What about the remaining activity at 3.75 µM ([2]; Well no.=43) of the same molecule?
**A.** 102%

**Q.** `CN1CCN(c2cc(-c3ccccc3)nc(N)n2)CC1` [VUF10460] was tested. Which remaining activity at 1.25 µM ([1]; Well no.=7041) did it give?
**A.** 105%

**Q.** What about the remaining activity at 3.75 µM ([2]; Well no.=7041) of the same molecule?
**A.** 105%

**Q.** Which results are given for `Nc1ncnc2n[nH]c(Nc3ccc(F)cc3)c12` [CGP 57380 - N3-(4-Fluorophenyl)-1H-pyrazolo-[3,4-d]pyrimidine-3,4-diamine]?
**A.** remaining activity at 1.25 µM ([1]; Well no.=2624): 92.8%; remaining activity at 3.75 µM ([2]; Well no.=2624): 92.7%

**Q.** `CN(C)C(=O)Oc1cccc([N+](C)(C)C)c1` [Neostigmine methyl sulfate] was tested. Which remaining activity at 1.25 µM ([1]; Well no.=6077) did it give?
**A.** 102%

**Q.** And the remaining activity at 3.75 µM ([2]; Well no.=6077)?
**A.** 101%

**Q.** For `CC(C)NC[C@@H](C(=O)N1CCN(c2ncnc3c2[C@H](C)C[C@H]3O)CC1)c1ccc(Cl)cc1` [GDC-0068], which remaining activity at 1.25 µM ([1]; Well no.=5131) is on record?
**A.** 104%

**Q.** And the remaining activity at 3.75 µM ([2]; Well no.=5131)?
**A.** 106%

**Q.** With `N[C@@H](Cc1ccccc1)C(=O)N1C/C(=C/c2ccc(Cl)c(Cl)c2)C(=O)/C(=C\c2ccc(Cl)c(Cl)c2)C1` [RA190] as the molecule, how does the remaining activity at 1.25 µM ([1]; Well no.=8408) read?
**A.** 89.3%

**Q.** And the remaining activity at 3.75 µM ([2]; Well no.=8408)?
**A.** 89.8%

**Q.** Which results are given for `CN(C)N(C)C(=O)[C@@]1(Cc2ccccc2)CCCN(C(=O)[C@@H](Cc2c[nH]c3ccccc23)NC(=O)C(C)(C)N)C1` [Anamorelin (hydrochloride)]?
**A.** remaining activity at 1.25 µM ([1]; Well no.=7291): 98.3%; remaining activity at 3.75 µM ([2]; Well no.=7291): 97.8%

**Q.** With `CC1=C(C)C(=O)C(CCCCC#CCCCC#CCO)=C(C)C1=O` [Docebenone] as the molecule, how does the remaining activity at 1.25 µM ([1]; Well no.=1917) read?
**A.** 90.8%

**Q.** What about the remaining activity at 3.75 µM ([2]; Well no.=1917) of the same molecule?
**A.** 90.2%

**Q.** How did the remaining activity at 1.25 µM ([1]; Well no.=1017) turn out when `CC(C)NC(C)Cc1ccc(I)cc1` (centres unmarked) [Iofetamine hydrochloride] was run?
**A.** 100%

**Q.** And the remaining activity at 3.75 µM ([2]; Well no.=1017)?
**A.** 105%

**Q.** `COc1cc(Nc2nc3ccccc3nc2NS(=O)(=O)c2ccc(NC(=O)c3ccc(C)c(OC)c3)cc2)cc(OC)c1` [PI3K-IN-1] was tested. Which remaining activity at 1.25 µM ([1]; Well no.=8600) did it give?
**A.** 102%

**Q.** And the remaining activity at 3.75 µM ([2]; Well no.=8600)?
**A.** 97.8%

**Q.** Which remaining activity at 1.25 µM ([1]; Well no.=1068) does the source give for `COC(=O)C(C)(N)Cc1ccc(O)cc1` (racemic) [alpha-Methyl-DL-tyrosine methyl ester hydrochloride] here?
**A.** 97%

**Q.** What about the remaining activity at 3.75 µM ([2]; Well no.=1068) of the same molecule?
**A.** 96.5%

**Q.** Which results are given for `O=c1cc(-c2ccccc2)[nH]c2nc(Cl)ccc12` [7-Chloro-4-hydroxy-2-phenyl-1,8-naphthyridine]?
**A.** remaining activity at 1.25 µM ([1]; Well no.=324): 98.8%; remaining activity at 3.75 µM ([2]; Well no.=324): 99.1%

**Q.** Which results are given for `O=c1cc(N2CCOCC2)oc2c(-c3ccccc3)cccc12` [LY 294002]?
**A.** remaining activity at 1.25 µM ([1]; Well no.=2465): 101%; remaining activity at 3.75 µM ([2]; Well no.=2465): 102%

**Q.** Which results are given for `CCCCCCCCCCCCCCCCCC(=O)NCC(COP(=O)([O-])OCC[N+](C)(C)C)OC` (racemic) [rac-2-Methoxy-3-octadecanamido-1-propylphosphocholine]?
**A.** remaining activity at 1.25 µM ([1]; Well no.=1126): 96.3%; remaining activity at 3.75 µM ([2]; Well no.=1126): 96.8%

**Q.** Which results are given for `CO[C@H](C)[C@](O)(C(=O)OCC1=CCN2CC[C@H](O)[C@@H]12)C(C)C` [Heliotrine]?
**A.** remaining activity at 1.25 µM ([1]; Well no.=3149): 101%; remaining activity at 3.75 µM ([2]; Well no.=3149): 104%

**Q.** For `CC(C)C(=O)OCC(=O)[C@@]12O[C@H](C3CCCCC3)O[C@@H]1C[C@H]1[C@@H]3CCC4=CC(=O)C=C[C@]4(C)[C@H]3[C@@H](O)C[C@@]12C` [Ciclesonide], which remaining activity at 1.25 µM ([1]; Well no.=7323) is on record?
**A.** 95.9%

**Q.** And the remaining activity at 3.75 µM ([2]; Well no.=7323)?
**A.** 97.2%

**Q.** Which results are given for `CN(C)CCC=C1c2ccccc2C=Cc2ccccc21` [Cyclobenzaprine hydrochloride]?
**A.** remaining activity at 1.25 µM ([1]; Well no.=320): 92.5%; remaining activity at 3.75 µM ([2]; Well no.=320): 93.2%

**Q.** `OCCn1cc(-c2cnc3nnn(Cc4ccc5ncccc5c4)c3n2)cn1` [PF04217903] was tested. Which remaining activity at 1.25 µM ([1]; Well no.=2937) did it give?
**A.** 99.1%

**Q.** What about the remaining activity at 3.75 µM ([2]; Well no.=2937) of the same molecule?
**A.** 98.4%

**Q.** What does the source list for `CC(C)(C)[C@H]1CC[C@H](N(Cc2ccc(C(=O)NCCC(=O)O)cc2)C(=O)Nc2ccc(OC(F)(F)F)cc2)CC1` [GRA Ex-25]?
**A.** remaining activity at 1.25 µM ([1]; Well no.=6180): 103%; remaining activity at 3.75 µM ([2]; Well no.=6180): 106%

**Q.** Which results are given for `COc1cc(C(=O)OCCCN2CCCN(CCCOC(=O)c3cc(OC)c(OC)c(OC)c3)CC2)cc(OC)c1OC` [Dilazep hydrochloride]?
**A.** remaining activity at 1.25 µM ([1]; Well no.=595): 103%; remaining activity at 3.75 µM ([2]; Well no.=595): 106%

**Q.** For `CC(C)NC[C@H](O)COc1ccc(CCOCC2CC2)cc1` [Levobetaxolol (hydrochloride)], which remaining activity at 1.25 µM ([1]; Well no.=6429) is on record?
**A.** 91.4%

**Q.** What about the remaining activity at 3.75 µM ([2]; Well no.=6429) of the same molecule?
**A.** 90.9%

**Q.** What does the source list for `Fc1ccc(-c2nc3n(c2-c2ccncc2)CCS3)cc1` [SKF-86002]?
**A.** remaining activity at 1.25 µM ([1]; Well no.=2652): 96.2%; remaining activity at 3.75 µM ([2]; Well no.=2652): 97.9%

**Q.** For `CCS(=O)(=O)c1cccc(-c2cc(C(=O)NC3CCN(C)CC3)c(C)c3[nH]c4ncc(C)cc4c23)c1` [TAK-901], which remaining activity at 1.25 µM ([1]; Well no.=4691) is on record?
**A.** 96.9%

**Q.** What about the remaining activity at 3.75 µM ([2]; Well no.=4691) of the same molecule?
**A.** 100%

**Q.** How did the remaining activity at 1.25 µM ([1]; Well no.=6173) turn out when `CN1CCCC(n2nc(Cc3ccc(Cl)cc3)c3ccccc3c2=O)CC1` (centres unmarked) [Azelastine (hydrochloride)] was run?
**A.** 103%

**Q.** And the remaining activity at 3.75 µM ([2]; Well no.=6173)?
**A.** 105%

**Q.** What does the source list for `C[C@@H](O)[C@H]1C(=O)N2C(C(=O)O)=C(SCCNC=N)C[C@H]12` [Imipenem]?
**A.** remaining activity at 1.25 µM ([1]; Well no.=1935): 102%; remaining activity at 1.25 µM ([1]; Well no.=5494): 104%; remaining activity at 3.75 µM ([2]; Well no.=1935): 103%; remaining activity at 3.75 µM ([2]; Well no.=5494): 104%

**Q.** `COc1ccc(C2=N[C@H](c3ccc(Cl)cc3)[C@H](c3ccc(Cl)cc3)N2C(=O)N2CCNC(=O)C2)c(OC(C)C)c1` [Nutlin (3b)] was tested. Which remaining activity at 1.25 µM ([1]; Well no.=6742) did it give?
**A.** 100%

**Q.** What about the remaining activity at 1.25 µM ([1]; Well no.=8362) of the same molecule?
**A.** 101%

**Q.** And the remaining activity at 3.75 µM ([2]; Well no.=6742)?
**A.** 100%

**Q.** `Cc1nccn1CCC(C(N)=O)(c1ccccc1)c1ccccc1` [Imidafenacin] was tested. Which remaining activity at 1.25 µM ([1]; Well no.=6377) did it give?
**A.** 102%

**Q.** What about the remaining activity at 3.75 µM ([2]; Well no.=6377) of the same molecule?
**A.** 97.6%

**Q.** Which remaining activity at 1.25 µM ([1]; Well no.=6654) does the source give for `COC(=O)N(C)c1c(N)nc(-c2nn(Cc3ccccc3F)c3ncccc23)nc1N` [Riociguat] here?
**A.** 107%

**Q.** What about the remaining activity at 3.75 µM ([2]; Well no.=6654) of the same molecule?
**A.** 108%

**Q.** With `O=C(NOCC1CC1)c1ccc(F)c(F)c1Nc1ccc(I)cc1Cl` [CI-1040] as the molecule, how does the remaining activity at 1.25 µM ([1]; Well no.=2741) read?
**A.** 100%

**Q.** And the remaining activity at 3.75 µM ([2]; Well no.=2741)?
**A.** 102%

**Q.** `CCCN(CCC)[C@@H]1CCc2cccc(O)c2C1` [R-(+)-8-Hydroxy-DPAT hydrobromide] was tested. Which remaining activity at 1.25 µM ([1]; Well no.=762) did it give?
**A.** 92.2%

**Q.** And the remaining activity at 3.75 µM ([2]; Well no.=762)?
**A.** 88.8%

**Q.** For `O=C1NC(=O)/C(=C/c2ccc(-c3ccc(F)cc3O)o2)S1` [AS-252424], which remaining activity at 1.25 µM ([1]; Well no.=2947) is on record?
**A.** 93.9%

**Q.** What about the remaining activity at 3.75 µM ([2]; Well no.=2947) of the same molecule?
**A.** 97.2%

**Q.** `CN(C)c1ccc(C2Nc3ccc4ccccc4c3C3=C2C(=O)CC(C)(C)C3)cc1Br` (centres unmarked) [5-[3-bromo-4-(dimethylamino)phenyl]-2,2-dimethyl-2,3,5,6-tetrahydrobenzo[a]phenanthridin-4(1H)-one] was tested. Which remaining activity at 1.25 µM ([1]; Well no.=5515) did it give?
**A.** 106%

**Q.** What about the remaining activity at 3.75 µM ([2]; Well no.=5515) of the same molecule?
**A.** 106%

**Q.** What does the source list for `CCCCCC/C=C/CCCCCCCCC(=O)O` [10(E)-Heptadecenoic acid]?
**A.** remaining activity at 1.25 µM ([1]; Well no.=4312): 104%; remaining activity at 3.75 µM ([2]; Well no.=4312): 96.7%

**Q.** What does the source list for `Clc1ccc(Cn2c(CN3CCCC3)nc3ccccc32)cc1` [Clemizole hydrochloride]?
**A.** remaining activity at 1.25 µM ([1]; Well no.=226): 98.5%; remaining activity at 3.75 µM ([2]; Well no.=226): 98%
